The results in this text go back to ChEMBL document CHEMBL5233266, “β-Carboline as a Privileged Scaffold for Multitarget Strategies in Alzheimer's Disease Therapy” (J Med Chem, 2021).

Assay [1] deals with 5-hydroxytryptamine receptor 1D (Homo sapiens, UniProt P28221). As to the kind of experiment: Binding affinity to 5-HT1DR (unknown origin) assessed as inhibition constant.
In assay [2] the target is T1, Amine oxidase [flavin-containing] A (Homo sapiens, UniProt P21397).
T1 sequence (P21397 whole entry): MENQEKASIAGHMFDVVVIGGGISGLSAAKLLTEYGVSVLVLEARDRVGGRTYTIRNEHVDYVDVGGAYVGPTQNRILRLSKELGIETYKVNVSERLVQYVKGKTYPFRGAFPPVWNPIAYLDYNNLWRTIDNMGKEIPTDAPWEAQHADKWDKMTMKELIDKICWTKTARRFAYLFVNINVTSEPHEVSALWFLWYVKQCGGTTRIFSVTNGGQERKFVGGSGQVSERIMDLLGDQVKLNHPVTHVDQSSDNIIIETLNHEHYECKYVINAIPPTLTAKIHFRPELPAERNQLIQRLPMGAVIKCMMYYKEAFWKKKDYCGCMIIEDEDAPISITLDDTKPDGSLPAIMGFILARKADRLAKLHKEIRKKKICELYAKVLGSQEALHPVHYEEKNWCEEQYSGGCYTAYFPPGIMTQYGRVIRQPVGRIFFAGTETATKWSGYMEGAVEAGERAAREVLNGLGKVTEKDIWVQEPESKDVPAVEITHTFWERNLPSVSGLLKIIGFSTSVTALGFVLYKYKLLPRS
As to the kind of experiment: Inhibition of MAO-A (unknown origin).

The target of assay [3] is Dual specificity tyrosine-phosphorylation-regulated kinase 1A (Homo sapiens, UniProt Q13627). As to the kind of experiment: Inhibition of DYRK1A (unknown origin).
The target of assay [4] is 5-hydroxytryptamine receptor 2A (Homo sapiens, UniProt P28223). In words: Displacement of [3H]-LSD from human 5-HT2A expressed in human HEK cells assessed as inhibition constant by FLIPR assay. It is filed as cell-based. In general terms: Displacement assays read how much labelled ligand stays bound in the presence of the test substance.
The target in assay [5] is 5-hydroxytryptamine receptor 7 (Homo sapiens, UniProt P34969). As to the kind of experiment: Displacement of […] from human 5-HT7 expressed in human HEK cells assessed as inhibition constant by FLIPR assay. It is filed as cell-based.
In assay [6] the target is 5-hydroxytryptamine receptor 1B (Homo sapiens, UniProt P28222). As to the kind of experiment: Displacement of […] from human 5-HT1B expressed in human HEK cells assessed as inhibition constant by FLIPR assay. It is filed as cell-based.
In assay [7] the target is T2, 5-hydroxytryptamine receptor 2C (Homo sapiens, UniProt P28335).
T2 sequence (P28335 whole entry): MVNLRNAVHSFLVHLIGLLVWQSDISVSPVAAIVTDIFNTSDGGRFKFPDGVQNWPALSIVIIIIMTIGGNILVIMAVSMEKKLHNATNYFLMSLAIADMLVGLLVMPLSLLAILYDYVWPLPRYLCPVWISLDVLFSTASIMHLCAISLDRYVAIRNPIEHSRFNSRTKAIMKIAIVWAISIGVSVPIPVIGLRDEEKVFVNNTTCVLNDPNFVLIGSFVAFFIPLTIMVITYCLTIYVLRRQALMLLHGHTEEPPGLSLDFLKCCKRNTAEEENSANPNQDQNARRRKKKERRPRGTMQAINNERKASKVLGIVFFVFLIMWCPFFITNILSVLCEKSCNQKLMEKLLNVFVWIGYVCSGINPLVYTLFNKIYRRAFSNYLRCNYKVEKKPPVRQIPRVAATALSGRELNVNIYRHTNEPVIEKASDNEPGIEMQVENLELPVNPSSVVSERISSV
In words: Displacement of [3H]-LSD from human 5-HT2C expressed in human HEK cells assessed as inhibition constant by FLIPR assay. It is filed as cell-based.

Assay [8] has as its target 5-hydroxytryptamine receptor 5A (Homo sapiens, UniProt P47898). As to the kind of experiment: Binding affinity to 5-HT5AR (unknown origin) assessed as inhibition constant.
Assay [9] has as its target 5-hydroxytryptamine receptor 1A (Homo sapiens, UniProt P08908). In words: Displacement of […] from human 5-HT1A expressed in human HEK cells assessed as inhibition constant by FLIPR assay. It is filed as cell-based.
For assay [10], the target named is T3, 5-hydroxytryptamine receptor 3A (Homo sapiens, UniProt P46098).
T3 sequence (P46098 whole entry): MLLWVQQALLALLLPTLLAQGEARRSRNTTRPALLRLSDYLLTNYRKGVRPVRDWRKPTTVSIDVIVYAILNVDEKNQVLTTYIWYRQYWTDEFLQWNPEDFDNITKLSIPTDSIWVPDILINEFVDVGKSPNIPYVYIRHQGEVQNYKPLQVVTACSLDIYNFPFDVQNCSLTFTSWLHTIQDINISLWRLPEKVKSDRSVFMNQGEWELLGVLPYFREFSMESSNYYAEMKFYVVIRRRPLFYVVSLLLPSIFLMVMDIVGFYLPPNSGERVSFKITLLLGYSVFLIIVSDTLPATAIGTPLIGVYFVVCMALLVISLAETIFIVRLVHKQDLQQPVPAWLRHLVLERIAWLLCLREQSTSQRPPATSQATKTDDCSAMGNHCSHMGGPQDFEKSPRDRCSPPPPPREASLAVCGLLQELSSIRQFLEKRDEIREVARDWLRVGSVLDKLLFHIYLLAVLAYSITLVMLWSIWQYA
In words: Binding affinity to 5-HT3R (unknown origin) assessed as inhibition constant.

The target of assay [11] is 5-hydroxytryptamine receptor 6 (Homo sapiens, UniProt P50406). As to the kind of experiment: Binding affinity to 5-HT6R (unknown origin) assessed as inhibition constant.
For another assay, the target named is Histone deacetylase 8 (Homo sapiens, UniProt Q9BY41). As to the kind of experiment: Inhibition of HDAC8 (unknown origin).
The target in a further assay is Histone deacetylase 4 (Homo sapiens, UniProt P56524). As to the kind of experiment: Inhibition of HDAC4 (unknown origin).
In another assay the target is Histone deacetylase 1 (Homo sapiens, UniProt Q13547). In words: Inhibition of HDAC1 (unknown origin).
For assay [12], the target named is Gamma-aminobutyric acid receptor subunit alpha-2 (Rattus norvegicus, UniProt P23576). In words: Displacement of [3H]-flumazenil from rat recombinant alpha2 GABAA receptor assessed as inhibition constant in presence of zolpidem.
For assay [13], the target named is Gamma-aminobutyric acid receptor subunit alpha-1 (Rattus norvegicus, UniProt P62813). In words: Displacement of [3H]-flumazenil from rat recombinant alpha1 GABAA receptor assessed as inhibition constant in presence of zolpidem.
The target of assay [14] is T4, Gamma-aminobutyric acid receptor subunit alpha-2 (Homo sapiens, UniProt P47869).
T4 sequence (P47869 whole entry): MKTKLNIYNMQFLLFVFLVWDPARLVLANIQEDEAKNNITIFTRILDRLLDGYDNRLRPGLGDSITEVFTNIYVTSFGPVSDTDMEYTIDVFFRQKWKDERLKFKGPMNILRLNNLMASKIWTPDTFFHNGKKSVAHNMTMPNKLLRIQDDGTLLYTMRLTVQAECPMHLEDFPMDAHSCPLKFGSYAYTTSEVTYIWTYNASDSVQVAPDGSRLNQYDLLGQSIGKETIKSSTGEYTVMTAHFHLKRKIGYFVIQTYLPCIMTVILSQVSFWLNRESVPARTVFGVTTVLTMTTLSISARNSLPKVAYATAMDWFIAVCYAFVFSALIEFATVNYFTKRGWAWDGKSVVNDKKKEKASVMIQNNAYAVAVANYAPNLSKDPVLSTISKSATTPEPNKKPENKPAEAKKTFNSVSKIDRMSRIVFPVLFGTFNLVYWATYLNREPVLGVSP
As to the kind of experiment: Inhibition of human recombinant GABAA alpha2 receptor.

The target of assay [15] is T5, Gamma-aminobutyric acid receptor subunit alpha-5 (Homo sapiens, UniProt P31644).
T5 sequence (P31644 whole entry): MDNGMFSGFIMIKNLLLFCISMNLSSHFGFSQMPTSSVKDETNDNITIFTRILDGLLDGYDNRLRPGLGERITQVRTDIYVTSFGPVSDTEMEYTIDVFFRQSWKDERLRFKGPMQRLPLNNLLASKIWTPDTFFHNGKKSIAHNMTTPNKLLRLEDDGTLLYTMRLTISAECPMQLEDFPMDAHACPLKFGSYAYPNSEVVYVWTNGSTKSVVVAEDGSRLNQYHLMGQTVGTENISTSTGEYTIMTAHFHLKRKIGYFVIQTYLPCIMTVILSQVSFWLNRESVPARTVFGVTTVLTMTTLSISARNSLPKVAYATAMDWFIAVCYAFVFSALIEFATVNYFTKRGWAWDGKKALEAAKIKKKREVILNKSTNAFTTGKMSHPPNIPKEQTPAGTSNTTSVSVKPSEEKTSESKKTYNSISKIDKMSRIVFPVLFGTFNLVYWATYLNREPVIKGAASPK
In words: Binding affinity to human recombinant GABAA alpha5 receptor assessed as inhibition constant incubated for 1 hrs by liquid scintillation counting analysis.

Assay [16] deals with T6, Gamma-aminobutyric acid receptor subunit alpha-4 (Homo sapiens, UniProt P48169). As to the kind of experiment: Inhibition of human recombinant GABAA alpha4 receptor.
For assay [17], the target named is T7, Gamma-aminobutyric acid receptor subunit alpha-3 (Homo sapiens, UniProt P34903).
T7 sequence (P34903 whole entry): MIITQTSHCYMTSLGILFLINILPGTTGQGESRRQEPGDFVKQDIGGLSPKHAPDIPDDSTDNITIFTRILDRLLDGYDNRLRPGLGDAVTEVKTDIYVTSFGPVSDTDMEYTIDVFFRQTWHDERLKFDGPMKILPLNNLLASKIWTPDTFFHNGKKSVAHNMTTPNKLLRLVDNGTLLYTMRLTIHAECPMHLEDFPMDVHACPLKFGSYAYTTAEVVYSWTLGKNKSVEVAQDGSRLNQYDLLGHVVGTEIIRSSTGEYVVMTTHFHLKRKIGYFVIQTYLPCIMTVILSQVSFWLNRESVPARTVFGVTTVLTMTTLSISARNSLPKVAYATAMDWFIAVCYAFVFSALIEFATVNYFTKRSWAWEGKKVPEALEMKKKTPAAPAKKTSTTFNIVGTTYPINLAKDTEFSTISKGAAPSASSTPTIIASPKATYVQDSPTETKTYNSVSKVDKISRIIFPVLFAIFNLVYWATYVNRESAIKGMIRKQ
As to the kind of experiment: Binding affinity to human recombinant GABAA alpha3 receptor assessed as inhibition constant incubated for 1 hrs by liquid scintillation counting analysis.

In assay [18] the target is T8, Gamma-aminobutyric acid receptor subunit alpha-1 (Homo sapiens, UniProt P14867).
T8 sequence (P14867 whole entry): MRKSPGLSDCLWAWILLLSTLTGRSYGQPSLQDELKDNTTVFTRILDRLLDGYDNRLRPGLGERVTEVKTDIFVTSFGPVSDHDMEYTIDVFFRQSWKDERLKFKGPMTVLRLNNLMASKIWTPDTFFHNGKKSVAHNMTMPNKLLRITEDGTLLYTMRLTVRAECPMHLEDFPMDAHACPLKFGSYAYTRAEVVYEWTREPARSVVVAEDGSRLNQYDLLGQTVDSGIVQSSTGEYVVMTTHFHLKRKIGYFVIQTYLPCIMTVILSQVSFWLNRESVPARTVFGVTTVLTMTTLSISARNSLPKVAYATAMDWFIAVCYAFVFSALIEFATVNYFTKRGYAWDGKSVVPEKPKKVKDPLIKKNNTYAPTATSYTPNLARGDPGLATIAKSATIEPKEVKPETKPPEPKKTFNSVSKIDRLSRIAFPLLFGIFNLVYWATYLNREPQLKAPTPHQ
As to the kind of experiment: Inhibition of human recombinant GABAA alpha1 receptor.

For assay [19], the target named is T7, Gamma-aminobutyric acid receptor subunit alpha-3. In words: Inhibition of human recombinant GABAA alpha3 receptor.
Assay [20] addresses T6, Gamma-aminobutyric acid receptor subunit alpha-4. In words: Binding affinity to human recombinant GABAA alpha4 receptor assessed as inhibition constant incubated for 1 hrs by liquid scintillation counting analysis.
The target in assay [21] is T4, Gamma-aminobutyric acid receptor subunit alpha-2. In words: Binding affinity to human recombinant GABAA alpha2 receptor assessed as inhibition constant incubated for 1 hrs by liquid scintillation counting analysis.
Assay [22] concerns the target T8, Gamma-aminobutyric acid receptor subunit alpha-1. In words: Binding affinity to human recombinant GABAA alpha1 receptor assessed as inhibition constant incubated for 1 hrs by liquid scintillation counting analysis.
For assay [23], the target named is T9, Gamma-aminobutyric acid receptor subunit alpha-6 (Homo sapiens, UniProt Q16445). In words: Inhibition of human recombinant GABAA alpha6 receptor.
Assay [24] deals with T5, Gamma-aminobutyric acid receptor subunit alpha-5. As to the kind of experiment: Inhibition of human recombinant GABAA alpha5 receptor.
The target of assay [25] is T9, Gamma-aminobutyric acid receptor subunit alpha-6. In words: Binding affinity to human recombinant GABAA alpha6 receptor assessed as inhibition constant incubated for 1 hrs by liquid scintillation counting analysis.

T6 sequence (P48169 whole entry): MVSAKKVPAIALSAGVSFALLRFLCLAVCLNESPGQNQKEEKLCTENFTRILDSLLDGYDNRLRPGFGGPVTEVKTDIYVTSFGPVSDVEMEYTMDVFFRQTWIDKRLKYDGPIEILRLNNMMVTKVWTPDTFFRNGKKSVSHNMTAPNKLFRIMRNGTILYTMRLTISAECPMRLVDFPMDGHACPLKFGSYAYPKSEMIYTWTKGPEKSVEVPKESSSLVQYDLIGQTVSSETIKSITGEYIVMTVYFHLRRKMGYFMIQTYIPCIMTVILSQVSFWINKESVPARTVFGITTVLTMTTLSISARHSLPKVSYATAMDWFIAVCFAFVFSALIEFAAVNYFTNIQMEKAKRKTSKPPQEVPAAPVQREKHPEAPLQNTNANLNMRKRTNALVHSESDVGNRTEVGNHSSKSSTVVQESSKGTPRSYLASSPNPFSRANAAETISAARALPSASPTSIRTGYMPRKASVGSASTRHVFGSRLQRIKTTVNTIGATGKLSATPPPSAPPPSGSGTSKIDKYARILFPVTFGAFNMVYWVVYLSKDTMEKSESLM
T9 sequence (Q16445 whole entry): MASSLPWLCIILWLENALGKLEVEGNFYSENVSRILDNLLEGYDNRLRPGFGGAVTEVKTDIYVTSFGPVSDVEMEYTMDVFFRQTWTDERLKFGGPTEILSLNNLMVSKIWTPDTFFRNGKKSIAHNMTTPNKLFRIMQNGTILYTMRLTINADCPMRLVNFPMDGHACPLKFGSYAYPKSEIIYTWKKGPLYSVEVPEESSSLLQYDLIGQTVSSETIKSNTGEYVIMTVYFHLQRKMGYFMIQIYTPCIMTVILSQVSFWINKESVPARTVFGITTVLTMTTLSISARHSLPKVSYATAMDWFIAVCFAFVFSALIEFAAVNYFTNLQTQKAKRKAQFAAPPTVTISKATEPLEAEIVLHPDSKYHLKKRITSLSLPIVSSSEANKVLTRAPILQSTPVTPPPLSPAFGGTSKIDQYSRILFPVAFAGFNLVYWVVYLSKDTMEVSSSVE
5-hydroxytryptamine receptor 1D, sequence (P28221 whole entry): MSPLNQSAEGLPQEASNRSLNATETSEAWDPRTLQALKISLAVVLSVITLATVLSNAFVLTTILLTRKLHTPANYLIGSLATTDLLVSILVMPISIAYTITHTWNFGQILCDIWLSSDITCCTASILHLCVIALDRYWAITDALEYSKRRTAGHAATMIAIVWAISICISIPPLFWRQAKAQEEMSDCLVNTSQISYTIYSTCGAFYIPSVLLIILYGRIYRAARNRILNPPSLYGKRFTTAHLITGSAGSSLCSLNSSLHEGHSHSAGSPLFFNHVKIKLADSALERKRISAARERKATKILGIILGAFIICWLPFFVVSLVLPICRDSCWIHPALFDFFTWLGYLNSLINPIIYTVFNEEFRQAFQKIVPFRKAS
5-hydroxytryptamine receptor 7, sequence (P34969 whole entry): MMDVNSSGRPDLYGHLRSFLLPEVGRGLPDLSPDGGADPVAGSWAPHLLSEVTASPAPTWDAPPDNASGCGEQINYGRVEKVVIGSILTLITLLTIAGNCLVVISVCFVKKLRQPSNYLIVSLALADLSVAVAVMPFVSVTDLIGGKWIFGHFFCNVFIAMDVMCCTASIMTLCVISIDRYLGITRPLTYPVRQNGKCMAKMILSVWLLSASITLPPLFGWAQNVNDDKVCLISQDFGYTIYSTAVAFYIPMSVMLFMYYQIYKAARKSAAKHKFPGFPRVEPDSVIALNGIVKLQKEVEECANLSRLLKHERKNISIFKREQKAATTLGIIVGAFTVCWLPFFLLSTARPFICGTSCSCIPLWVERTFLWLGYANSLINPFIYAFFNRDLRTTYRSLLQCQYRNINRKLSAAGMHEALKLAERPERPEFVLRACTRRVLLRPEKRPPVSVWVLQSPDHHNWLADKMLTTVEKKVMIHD
5-hydroxytryptamine receptor 1B, sequence (P28222 whole entry): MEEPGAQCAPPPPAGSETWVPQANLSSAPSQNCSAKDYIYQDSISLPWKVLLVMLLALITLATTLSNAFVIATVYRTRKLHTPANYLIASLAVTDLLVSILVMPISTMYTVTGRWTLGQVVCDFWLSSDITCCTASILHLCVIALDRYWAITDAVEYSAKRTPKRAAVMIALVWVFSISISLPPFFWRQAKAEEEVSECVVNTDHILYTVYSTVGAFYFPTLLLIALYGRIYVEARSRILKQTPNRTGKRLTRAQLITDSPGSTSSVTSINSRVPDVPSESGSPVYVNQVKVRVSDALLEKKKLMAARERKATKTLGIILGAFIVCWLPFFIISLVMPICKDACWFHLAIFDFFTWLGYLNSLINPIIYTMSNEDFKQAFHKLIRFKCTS
5-hydroxytryptamine receptor 5A, sequence (P47898 whole entry): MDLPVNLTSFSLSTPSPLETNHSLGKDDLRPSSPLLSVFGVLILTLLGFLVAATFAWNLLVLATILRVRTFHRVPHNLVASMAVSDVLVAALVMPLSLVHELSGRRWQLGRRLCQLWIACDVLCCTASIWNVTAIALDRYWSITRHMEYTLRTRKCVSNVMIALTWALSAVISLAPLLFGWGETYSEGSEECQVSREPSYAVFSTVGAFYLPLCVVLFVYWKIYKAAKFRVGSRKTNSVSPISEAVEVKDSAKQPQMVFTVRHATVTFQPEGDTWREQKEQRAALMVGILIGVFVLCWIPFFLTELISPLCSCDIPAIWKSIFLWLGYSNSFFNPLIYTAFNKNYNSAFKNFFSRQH
5-hydroxytryptamine receptor 1A, sequence (P08908 whole entry): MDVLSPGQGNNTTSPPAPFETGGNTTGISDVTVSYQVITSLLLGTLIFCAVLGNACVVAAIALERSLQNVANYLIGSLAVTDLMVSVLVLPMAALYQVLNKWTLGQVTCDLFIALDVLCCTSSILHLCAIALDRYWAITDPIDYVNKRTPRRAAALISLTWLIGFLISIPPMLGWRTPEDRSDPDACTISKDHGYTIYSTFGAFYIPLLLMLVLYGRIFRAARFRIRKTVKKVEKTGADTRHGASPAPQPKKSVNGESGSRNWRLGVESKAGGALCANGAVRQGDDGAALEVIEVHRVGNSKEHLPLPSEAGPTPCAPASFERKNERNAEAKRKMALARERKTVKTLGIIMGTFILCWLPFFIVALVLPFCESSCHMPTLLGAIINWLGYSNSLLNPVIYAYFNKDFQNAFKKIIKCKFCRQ
Histone deacetylase 8, sequence (Q9BY41 whole entry): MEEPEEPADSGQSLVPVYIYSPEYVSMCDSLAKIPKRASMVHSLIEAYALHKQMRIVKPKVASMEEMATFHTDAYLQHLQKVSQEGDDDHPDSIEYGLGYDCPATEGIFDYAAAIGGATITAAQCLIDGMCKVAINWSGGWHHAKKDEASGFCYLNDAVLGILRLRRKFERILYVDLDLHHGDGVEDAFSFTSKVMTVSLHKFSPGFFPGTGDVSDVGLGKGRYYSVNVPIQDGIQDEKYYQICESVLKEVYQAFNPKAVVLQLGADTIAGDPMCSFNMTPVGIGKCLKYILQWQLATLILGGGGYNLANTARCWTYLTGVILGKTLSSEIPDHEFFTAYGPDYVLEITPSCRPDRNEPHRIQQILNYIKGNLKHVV
Gamma-aminobutyric acid receptor subunit alpha-2 (Rattus norvegicus, UniProt P23576), sequence (P23576 whole entry): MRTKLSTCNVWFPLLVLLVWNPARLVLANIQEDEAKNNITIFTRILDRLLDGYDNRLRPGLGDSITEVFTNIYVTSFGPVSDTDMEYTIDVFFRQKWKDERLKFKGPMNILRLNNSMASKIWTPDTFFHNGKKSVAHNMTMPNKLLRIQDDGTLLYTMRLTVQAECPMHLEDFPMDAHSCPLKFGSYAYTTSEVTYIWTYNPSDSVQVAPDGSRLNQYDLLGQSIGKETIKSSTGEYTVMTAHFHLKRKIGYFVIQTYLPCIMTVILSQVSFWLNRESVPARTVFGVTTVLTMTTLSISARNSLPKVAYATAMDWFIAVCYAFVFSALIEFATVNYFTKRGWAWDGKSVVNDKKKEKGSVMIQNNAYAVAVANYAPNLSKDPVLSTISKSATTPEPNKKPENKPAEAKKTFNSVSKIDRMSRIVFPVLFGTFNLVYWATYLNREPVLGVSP
5-hydroxytryptamine receptor 2A, sequence (P28223 whole entry): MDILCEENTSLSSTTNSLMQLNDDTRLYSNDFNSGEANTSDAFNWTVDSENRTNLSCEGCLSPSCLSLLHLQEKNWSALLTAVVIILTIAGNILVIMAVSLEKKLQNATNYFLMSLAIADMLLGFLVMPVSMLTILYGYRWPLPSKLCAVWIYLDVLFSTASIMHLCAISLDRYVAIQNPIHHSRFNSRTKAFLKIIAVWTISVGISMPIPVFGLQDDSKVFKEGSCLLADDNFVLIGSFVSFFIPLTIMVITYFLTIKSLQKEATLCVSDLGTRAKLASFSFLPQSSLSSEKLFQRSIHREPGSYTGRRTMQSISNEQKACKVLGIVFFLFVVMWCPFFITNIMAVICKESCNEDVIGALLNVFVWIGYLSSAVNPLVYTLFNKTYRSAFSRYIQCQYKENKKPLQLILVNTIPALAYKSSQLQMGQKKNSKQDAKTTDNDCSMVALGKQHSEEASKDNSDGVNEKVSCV
Histone deacetylase 1, sequence (Q13547 whole entry): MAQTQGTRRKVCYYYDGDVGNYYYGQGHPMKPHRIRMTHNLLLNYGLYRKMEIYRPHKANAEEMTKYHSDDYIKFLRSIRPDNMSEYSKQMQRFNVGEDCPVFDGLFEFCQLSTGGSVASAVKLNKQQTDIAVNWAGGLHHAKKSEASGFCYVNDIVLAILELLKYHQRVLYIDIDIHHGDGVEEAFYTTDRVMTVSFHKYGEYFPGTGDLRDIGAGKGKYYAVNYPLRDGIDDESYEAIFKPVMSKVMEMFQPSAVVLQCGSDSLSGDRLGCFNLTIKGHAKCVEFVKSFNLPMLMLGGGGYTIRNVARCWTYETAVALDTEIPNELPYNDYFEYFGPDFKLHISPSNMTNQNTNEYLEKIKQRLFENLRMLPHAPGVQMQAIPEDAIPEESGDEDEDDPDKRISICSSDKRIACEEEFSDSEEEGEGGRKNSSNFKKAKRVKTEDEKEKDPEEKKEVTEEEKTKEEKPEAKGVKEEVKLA

For the compound `COc1ccc2c3c([nH]c2c1)C(C)=NCC3` [HARMALINE], the Ki in [1] was over 10000 nM; in [4], 5000 nM; in assay [5], 5500 nM; in [6], over 10000 nM; in assay [7], 9400 nM; in assay [8] it was over 10000 nM. Further, the Ki in assay [9] is over 10000 nM; in assay [10], over 10000 nM; in assay [11] it was 1500 nM. Besides, the values for the IC50 in [2] and in assay [3] were 2.5 nM and 4600 nM, respectively.

`COc1ccc(-c2nc(C(=O)NCc3ccc(C(=O)NO)cc3)cc3c2[nH]c2ccccc23)cc1`: the IC50 is over 1000 nM against Histone deacetylase 8, over 1000 nM against Histone deacetylase 4 and 4.1 nM against Histone deacetylase 1.

As to `Cn1c2ccc(F)cc2c2c(C(=O)N3CCCC3)cn(-c3ccccc3)c(=O)c21`, the inhibitory constant (Ki) in assay [12] was determined as 12 nM; in assay [13], 7 nM.

As to `CC(OC(=O)c1cc2c(cn1)[nH]c1ccccc12)c1ccccc1` (stereo not drawn), the IC50 in assay [14] is over 1000 nM; in assay [16], over 1000 nM; in [18], 34 nM; in assay [19], over 1000 nM; in assay [23], over 1000 nM; in [24] it was over 1000 nM. In addition, the Ki stood at 1000 nM in assay [15]; 1000 nM in [17]; 1000 nM in [20]; 1000 nM in assay [21]; 34 nM in assay [22]; 3000 nM in [25].

One may read the Ki as a dissociation constant, usually derived from enzyme kinetics or from competition with a known ligand. What is called IC50 is the midpoint of a concentration-inhibition curve.
